Test results reported in patent publication US8865672B2, “Prevention of tissue ischemia and related methods” (The United States of America, as represented by the …, priority 2006, dated 2014).
Peptide text beside a SMILES is read from it. * marks the point of attachment. Biotin = O=C1N[C@H]2[C@H](CS[C@H]2CCCCC(=O)*)N1

Assays:
VASP = assay: Phospho-Ser239 VASP Western blotting in platelets; type: cell-based, human; conditions: 8Br-cGMP 100 μM, TSP1 2.2 nM
Method: Washed human platelets (resuspended in Tyrode's buffer to 3×10^8 platelets/mL to a final volume of 0.5 mL) were incubated at 37° C. for 30 minutes before treatment. TSP1 was added 15 minutes prior to treatment. Immediately following treatment, platelets were pelleted at 13,000×g at 4° C. for 15 seconds and resuspended in 1 mL of a lysis buffer containing 10 mM Tris-HCl (pH 7.5), 150 mM NaCl, 1 mM EDTA, 1 mM Na3VO4, 40 mM NaF, 1 μg/mL aprotinin, 1 μg/mL leupeptin, 1 mM phenylmethysulfonylfluoride and 1% […]. This suspension was placed at 4° C. with gentle agitation for 5 minutes before centrifugation at 13000×g for 5 minutes at 4° C. 5 μg lysates were electrophoresed on 4-12% Bis-Tris NuPAGE gels, transferred to Immobilon PVDF membranes and probed with a rabbit polyclonal antiserum against Serine 239-phosphorylated VASP (Santa Cruz Biotechnology, Santa Cruz, Calif.).

[1] = test system: murine WT and TSP1-null platelets; assay: Thrombin-induced murine platelet aggregation; type: cell-based, mouse; conditions: high shear
Method: Aggregation of human platelets under high shear conditions was assessed using a standard optical aggregometer (Lumi-Dual Aggregometer, Chrono-Log Corp., Havertown, Pa.) at 37° C. and 1200 rpm in a volume of 500 μl buffer with a final platelet concentration of 2×10^5 platelets/μl over a 5 minute interval. Pre-incubation with TSP1 and TSP1-based agents was for 15 minutes prior to addition of thrombin and/or the rapidly releasing nitric oxide donor DEA/NO. In some experiments platelets were pre-incubated with the Rap1 inhibitor GGTI-298 (10 μM) (Calbiochem, La Jolla, Calif.) for 30 minutes prior to initiating aggregation. In other high shear aggregation experiments murine platelets were prepared as above with the following modifications. Mouse blood was collected by retro-orbital bleeding of anesthetized mice using heparinized tubes. PRP was prepared and then diluted with 4 vol. of Tyrodes containing 5 mM EDTA to prevent activation. After collection by centrifugation, platelets were resuspended in 2× initial PRP volume and held at room temperature for less than 1 hour before use. […] Platelet aggregation under static conditions was assessed using a spectrophotometer (Beckman DU 640, Beckman Coulter, Fullerton, Calif.) and determined as a change in absorbance at 400 nm with continuous observation over a five minute interval. […]

Rap1 = Rap1 pulldown assay in platelets; type: cell-based, human; conditions: thrombin
Method: Platelets were diluted to 5×10^8 platelets/mL in Tyrode's buffer and treated with various reagents for the indicated times. Immediately following treatment, platelets were pelleted at 13,000 g for 30 seconds at 4° C. and resuspended in ice-cold lysis buffer containing 20 mM HEPES (pH 7.5), 100 mM NaCl, 10 mM EGTA, 20 mM MgCl2, 8 mM α-glycerophosphate, 1% Triton X-100, 1 mM phenylmethylsulfonylfluoride, 40 mM NaF, 1 mM Na3VO4, 10 μg/mL aprotinin, and 10 μg/mL leupeptin. Lysates were centrifuged at 13,000 g for 5 minutes at 4° C. and the supernatants were incubated for 15 minutes on a tumbler at 4° C. with glutathione Sepharose 4B beads (Amersham) prebound with a GST-Ral GDS RBD fusion protein (kind gift of J. Silvio Gutkind, NIH, Bethesda, Md.). Bead complexes were washed by centrifugation at 6,000 g for 30 seconds at 4° C. followed by resuspension in 0.5 mL lysis buffer; 2 washes were performed for each sample. After the second wash, beads were resuspended in an equal volume of 2×SDS sample buffer and stored at −20° C. For Western analysis, bead-bound proteins in sample buffer were boiled for 10 minutes and subjected to electrophoresis on NuPAGE 10% Bis-Tris gels (Invitrogen, Carlsbad, Calif.), transferred to Immobilon-P PVDF membranes (Millipore, Billerica, Mass.), and blotted with rabbit polyclonal anti-Rapt (sc-65; Santa Cruz Biotechnology, Santa Cruz, Calif.).

[2] = test system: VSMC and endothelial cells; assay: NO-stimulated adhesion of VSMC and endothelial cells to type I collagen (Example 9); type: cell-based; conditions: 10 μM DEA/NO
Method: Vascular cells (VSMC or endothelial) were plated at 10,000 cells/well onto 96-well plates (Maxisorb, Nunc) precoated with type I collagen (3 μg/ml). […] Plates were then washed with PBS, fixed with glutaraldehyde, stained with crystal violet, and washed. Absorbed stain was solubilized with acetic acid from fixed cells and the resulting color signal determined on a MR580Microelisa Auto Reader, (Dynatech, Alexandria, Va.) at 450 nm wavelength.

NO/cGMP signaling = assay: cGMP signaling (NO-stimulated cGMP, immunoassay); type: cell-based, human; conditions: concentration for 50% inhibition of effect
Method: (§1) Vascular cells (endothelial) or HT-1080 cells (10^4 cells/well) grown overnight in 12-well culture in SM-GM containing 2% FCS or RPMI+10% FCS respectively and then weaned off serum over 48 h before treatment with NO donors and other agents in serum/additive free medium+0.1% BSA. Intracellular cGMP levels were determined using an enzyme immunoassay (Amersham, GE Health Care, UK). In other experiments fresh washed human platelets were incubated in Tyrode's buffer and the indicated treatment agents±NO and cGMP determined.

[3] = test system: endothelial cells and platelets; assay: NO-stimulated cGMP flux in endothelial cells and platelets (Example 9); type: cell-based, human; conditions: 10 μM DEA/NO
Method: as §1
Endothelial cells (FIG. 62C) and platelets (FIG. 62D) in basal medium without serum or Tyrode's buffer respectively were treated with the indicated peptides±NO (10 μM DEA/NO) and cGMP levels determined.

human platelets = assay: Thrombin-induced human platelet aggregation; type: cell-based; conditions: low shear, peptide 1 μM, 10 μM DEA/NO
Method in brief: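 Washed human platelets in Tyrode's buffer pH 7.4 (2×10^5/μl) are stirred at 1200 rpm and 37 °C, and optical aggregation is followed for 5 min; under static conditions, A400 is tracked for 5 min instead. TSP1 agents or 1 μM peptide C6d are pre-incubated for 15 min before thrombin ± DEA/NO (10 μM).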

[4] = target: T1, CD47 IgV domain / SIRP IgV domain (Homo sapiens, UniProt Q08722); assay: ELISA of SIRP IgV domain binding to CD47 IgV domain; conditions: Fc-SIRP IgV on protein A plates, alkaline phosphatase-CD47 IgV
T1 construct: alkaline phosphatase fusions of the CD47 IgV domain
From the text: SIRP-alpha (Signal Inhibitory Regulatory Protein Alpha; SIRPα) and the closely related SIRP-gamma (SIRPγ formerly called SIRP-beta) are two ligands of CD47. They consist of an N-terminal IgV set domain and variable numbers of 1 g domains followed by a transmembrane segment and variously spliced cytoplasmic tails, some of which contain phosphorylatable tyrosines that constitute docking sites for tyrosine phosphatases such as SHP-1 and SHP-2. The IgV domain of SIRP-alpha and -gamma are high affinity ligands of CD47 with species specificity thought to allow self vs. non-self discrimination by phagocytes. The binding of the IgV domain of SIRPα to the IgV domain of CD47 can be measured in a simple ELISA assay using recombinant versions of each protein. For this purpose we have employed Fc-fusions of SIRP IgV domain and alkaline phosphatase fusions of the CD47 IgV domain. The Fc-IgV protein is adsorbed to well plates coated with protein A to which the Fc binds. Potential inhibitors are added and the binding of alkaline phosphatase-conjugated CD47 IgV domain is measured by routine procedures.

HASMC [5] = assay: HASMC proliferation (MTS); type: cell-based, human; conditions: DETA/NO 10 μM, 72 h
Method: Proliferation of vascular cells was measured with a non-radioactive colorimetric assay (CellTiter 96, Promega, Madison, Wis.). Briefly, to each well of a 96-well culture plate (Nunc, Denmark) 5×10^3 cells were suspended in 100 μl of culture medium with indicated treatments and incubated for 72 hours at 37° C. in a 5% CO2 atmosphere. Following incubation 20 μl of tetrazolium compound/solubilization agent was added and incubation continued for 4 hours under the same conditions. The plate was then read on a MR580 Microelisa Auto Reader (Dynatech) at a wavelength of 490 nm. Appropriate zero time controls were run for all assays and the optical density readings obtained then subtracted from those obtained at 72 hours.

HASMC [6] = assay: NO-stimulated HASMC adhesion on type I collagen; type: cell-based, human; conditions: DEA/NO 10 μM
Method: Cell adhesion was carried out in 96-well culture plates. After pre-coating wells with type I collagen (3 μg/ml in DPBS) harvested cells were plated at a density of 1×10^4 cells/well in medium plus 0.1% BSA and treatment agents and incubated in 5% CO2 for 1 h. Wells were washed with PBS and cells fixed with 1% glutaraldehyde for 10 min., washed and stained with 1% crystal violet for 20 min. Excess stain was rinsed away, adherent cells treated with 10% acetic acid, and plates read at 570 nm.

[7] = test system: murine ASMC (WT, CD36 null, CD47 null); assay: Intracellular cGMP in murine ASMC; type: cell-based, mouse
Method in brief: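 Aortic smooth muscle cells from wild-type C57Bl/6, CD36-null or CD47-null mice, passage 1–4, plated overnight in full growth medium. Weaned to SM-GM + 0.1% BSA before treatment with NO donor and other agents. Intracellular cGMP measured by enzyme immunoassay.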

HASMC [8] = assay: Intracellular cGMP in HASMC; type: cell-based, human; conditions: DEA/NO 10 μM, 5 minutes
HUVEC = assay: Intracellular cGMP in HUVEC; type: cell-based, human; conditions: DEA/NO 10 μM
Method: HUVEC (10^4 cells/well) grown overnight in 96-well culture plates containing full growth medium with 2% FCS and weaned in growth medium without additives and 1% FCS over 24 hrs before treatment with NO donors and other agents in SM-GM without additives+0.1% BSA. Intracellular cGMP levels were determined according to the manufacturer's instructions using an enzyme immunoassay kit (Amersham Biosciences). In other experiments ASMC from wild type and CD36 or CD47 null mice were plated onto 96-well culture plates and incubated overnight in full growth medium. They were then weaned off serum as described to SM-GM+0.1% BSA and treated with NO donor and other agents as indicated. Intracellular cyclic nucleotides were determined via immunoassay.

T1 sequence (Q08722 19-127 limits assumed): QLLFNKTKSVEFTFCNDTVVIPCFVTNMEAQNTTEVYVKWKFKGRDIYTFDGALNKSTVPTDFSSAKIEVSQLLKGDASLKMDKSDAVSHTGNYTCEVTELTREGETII

In the case of `Nc1nc2c(nc(Br)n2[C@@H]2O[C@@H]3COP(=O)(O)O[C@H]3[C@H]2O)c(=O)[nH]1` [8Br-cGMP, 8-Bromo cyclic guanine monophosphate, reference compound], the “VASP phosphorylation at Ser239” value (VASP) is reported as “stimulates VASP phosphorylation at Ser239”, the thrombin-induced aggregation ([1]; TSP1-null platelets) is reported as “rendered TSP1-null platelets resistant to thrombin-induced aggregation” and the thrombin-induced aggregation ([1]; WT murine platelets) is reported as “substantially inhibited aggregation of WT murine platelets”. For the same compound, the “Rap1 activation (GTP loading)” value (Rap1) was “inhibited this activation”.
`CC[C@H](C)[C@H](NC(=O)[C@@H](N)Cc1c[nH]cn1)C(=O)NCC(=O)N[C@@H](Cc1c[nH]c2ccccc12)C(=O)N[C@@H](CCCCN)C(=O)N[C@@H](CC(=O)O)C(=O)N[C@@H](Cc1ccccc1)C(=O)N[C@H](C(=O)N[C@@H](C)C(=O)N[C@@H](Cc1ccc(O)cc1)C(=O)N[C@@H](CCCNC(=N)N)C(=O)N[C@@H](Cc1c[nH]c2ccccc12)C(=O)N[C@@H](CCCNC(=N)N)C(=O)N[C@@H](CC(C)C)C(=O)N[C@@H](CO)C(=O)O)[C@@H](C)O` [C6b, HIGWKDFTAYRWRLS] (H-HIGWKDFTAYRWRLS-OH) was tested, and the “NO-stimulated adhesion to type I collagen” value [2] was “blocked in a dose-dependent manner”, the IC50 (NO/cGMP signaling) was ~100 nM and the “NO-stimulated cGMP flux” value [3] was “Blocked”.
In the case of `CC[C@H](C)[C@H](NC(=O)CCCC[C@@H]1SC[C@@H]2NC(=O)N[C@@H]21)C(=O)NCC(=O)N[C@@H](Cc1c[nH]c2ccccc12)C(=O)N[C@@H](CCCCN)C(=O)N[C@@H](CC(=O)O)C(=O)N[C@@H](Cc1ccccc1)C(=O)N[C@H](C(=O)N[C@@H](C)C(=O)N[C@@H](Cc1ccc(O)cc1)C(=O)N[C@@H](CCCNC(=N)N)C(=O)O)[C@@H](C)O` [C6d, biotin-IGWKDFTAYR] (Biotin-IGWKDFTAYR-OH), the “NO-stimulated adhesion to type I collagen” value [2] is reported as “blocked in a dose-dependent manner”, the “NO delay of thrombin-stimulated aggregation” value (human platelets) is reported as “completely reversed” and the IC50 (NO/cGMP signaling) is reported as ~100 nM. For the same compound, the “NO-stimulated cGMP flux” value [3] was “Blocked”.
`CC[C@H](C)[C@H](N)C(=O)NCC(=O)N[C@@H](Cc1c[nH]c2ccccc12)C(=O)N[C@@H](CCCCN)C(=O)N[C@@H](CC(=O)O)C(=O)N[C@@H](Cc1ccc(O)cc1)C(=O)N[C@H](C(=O)N[C@@H](C)C(=O)N[C@@H](Cc1ccc(O)cc1)C(=O)N[C@@H](CCCNC(=N)N)C(=O)O)[C@@H](C)O` [compound 37298, IGWKDYTAYR] (H-IGWKDYTAYR-OH) was tested, and the “inhibition of binding of the SIRP IgV domain to CD47” value [4] was “can inhibit the binding” and the IC50 (NO/cGMP signaling) was ~100 nM.
In the case of “CBD: recombinant C-terminal cell-binding domain (G module) of TSP1”, the “NO-stimulated HASMC proliferation” value (HASMC [5]) is reported as “inhibited NO-stimulated HASMC proliferation”, the “NO-stimulated HASMC adhesion on type I collagen” value (HASMC [6]; 1 h) is reported as “slightly less active but also dose-dependently inhibited” and the “NO-stimulated cGMP” value ([7]; CD36 null MASMC) is reported as “completely inhibited”. The “NO-stimulated cGMP” value ([7]; CD47 null MASMC) was “did not significantly inhibit” and the “NO-stimulated cGMP levels in HASMC” value (HASMC [8]) was “equipotent dose-dependent inhibitors”.
With “E3CaG1: recombinant C-terminal regions of TSP1” the “concentration that inhibited NO-driven HASMC adhesion to collagen” value (HASMC [6]) was > 0.4 nM, the “NO-stimulated cGMP levels in HASMC” value (HASMC [8]) was “equipotent dose-dependent inhibitors” and the “NO-driven cGMP production” value (HUVEC) was “potently inhibited”.
